These results are taken from publication PMC12640663 (Chemmedchem, 2025).

SMILES strings stand for the structures. Read-outs that look alike come from different tables or passages of the source. Some results are limits rather than exact numbers.

The target of one test is T1, TCPTP (Homo sapiens, UniProt P17706).
T1 sequence (P17706 1-415): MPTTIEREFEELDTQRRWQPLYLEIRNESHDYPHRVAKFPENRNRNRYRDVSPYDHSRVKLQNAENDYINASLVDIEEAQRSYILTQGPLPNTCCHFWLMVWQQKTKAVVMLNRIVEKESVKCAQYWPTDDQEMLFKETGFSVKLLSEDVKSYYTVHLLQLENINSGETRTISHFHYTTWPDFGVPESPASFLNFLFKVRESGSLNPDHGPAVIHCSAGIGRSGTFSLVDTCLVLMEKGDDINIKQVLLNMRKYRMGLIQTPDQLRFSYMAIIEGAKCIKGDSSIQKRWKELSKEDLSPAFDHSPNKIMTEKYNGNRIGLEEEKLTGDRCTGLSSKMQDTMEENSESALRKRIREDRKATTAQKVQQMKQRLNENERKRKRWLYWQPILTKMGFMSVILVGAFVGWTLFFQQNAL
The test is described as follows: T‐cell protein tyrosine phosphatase (TCPTP) activity assay (p‐NPP). The class given is biochemical. The settings on record: for TCPTP inhibition (in words): up to 100 μM. Here is the method: The effectiveness and safety of protein tyrosine phosphatase (PTP) inhibitors depend on their specificity. PTP1B and TCPTP serve different functions: PTP1B is involved in metabolism and cancer, while TCPTP regulates immune function. Inhibiting TCPTP could impact the immune response, whereas inhibiting PTP1B may benefit metabolic diseases without these side effects.^[ [20] ^, [34] ^, [35] ^] […] These compounds were assessed up to 100 μM (Table 1).
TCPTP enzyme reported by Mendoza et al. was used for this assay. […] Aliquots of 0–10 µL (triplicate) of the newly synthesized compounds, positive control, and solvent were taken. These were incubated with 85 µL of enzyme solution (Tris, 50 mM, pH 6.8, TCPTP) and 5 µL of substrate (p‐NPP, 10 mM) for 15 min at 37 °C.

In another test the test system is hPTP1B1−322. The arrangement: method as in PMID 37628991. The following applies: previous research, cited from earlier work; for IC50: read-out: IC50 against hPTP1B1−322; for Ki: read-out: K i against hPTP1B1−322.
Test [1] concerns the target T2, hPTP1B1–400 (Homo sapiens, UniProt P18031).
T2 sequence (P18031 1-400): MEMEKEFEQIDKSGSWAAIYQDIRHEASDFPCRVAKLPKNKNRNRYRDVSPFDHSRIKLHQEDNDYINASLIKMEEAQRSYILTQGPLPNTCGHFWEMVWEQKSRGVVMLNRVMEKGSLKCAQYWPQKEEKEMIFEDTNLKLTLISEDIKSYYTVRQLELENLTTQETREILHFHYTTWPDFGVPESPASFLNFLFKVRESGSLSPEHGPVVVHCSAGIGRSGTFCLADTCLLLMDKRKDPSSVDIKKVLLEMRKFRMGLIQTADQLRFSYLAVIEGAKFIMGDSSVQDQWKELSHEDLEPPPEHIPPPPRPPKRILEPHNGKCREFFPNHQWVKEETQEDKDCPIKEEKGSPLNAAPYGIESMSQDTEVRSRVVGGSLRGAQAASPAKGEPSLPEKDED
The test is described as follows: Kinetic studies of PTP1B (hPTP1B1–400).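 For all read-outs here: enzyme kinetics run across a range of substrate and inhibitor levels, control lacking inhibitor, triplicate runs, parameters derived by fitting Michaelis–Menten style equations.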 The following applies: for Inhibition type: hPTP1B1–400; for K m / V max: hPTP1B1–400 with inhibitor.
Description: Kinetic analyses were performed at various substrate and inhibitor concentrations.
The negative control was prepared with the enzyme and substrate in the absence of the inhibitor. Experiments were conducted in triplicate.^[ [30] ^] […] The kinetic parameters of enzyme inhibition, K m and V max, were determined by fitting the data to the Michaelis‐Menten model, Equation (3) (OriginPro 2018 (64‐bit) SR1). (3) y=VmaxX/Km+X´ where V max: is the maximum velocity, X: is the inhibitor concentration, K m: Michaelis constant.
(4) y=Vmax(X)/(Km/1+I/Ki)+X where V max: maximum velocity, X: substrate concentration, I: inhibitor concentration, K m: Michaelis constant, K i : inhibition constant.

Test [2] deals with T2, hPTP1B1–400. The test is described as follows: PTP1B activity assay, long form hPTP1B1–400 (p‐NPP). The class given is biochemical. The arrangement: hPTP1B1–400 (the long form with an intrinsically disordered C‐terminal regulatory domain). The following applies: for IC50: ± S.D, p‐NPP substrate, 15 min at 37 °C, triplicate. The protocol:
The inhibitory activity of PTP1B was assessed using two enzyme variants: hPTP1B1–285 (the short form with an N‐terminal catalytic domain) and hPTP1B1–400 (the long form with an intrinsically disordered C‐terminal regulatory domain). […] According to Coronel‐Tovar et al., the disordered region of the C‐terminal domain plays a crucial role in modulating PTP1B enzymatic activity.^[ [30] ^] […] Different concentrations of the compounds were evaluated to determine their IC50 values (Table 1 ).
Recombinant human protein tyrosine phosphatase 1B, consisting of 400 and 285 amino acid residues, was used.^[ [35] ^] […] Aliquots of 0–10 µL of the test compounds (triplicate) were taken and incubated for 15 min at 37 °C with 85 µL of Tris buffer solution (50 mM, pH 6.8) containing PTP1B enzyme and 5 µL of p‐nitrophenyl phosphate substrate (p‐NPP, 10 mM). Absorbance was then measured at a wavelength of 405 nm. The inhibitory activity was determined according to Equation (1). (1) % PTP1B=(A405b/A405c)×100 where % PTP1B: Is the percentage of inhibition. A 405c: Is the corrected absorbance of the blank (A 405initial–A 405final). A 405b: Is the corrected absorbance of the compounds (A 405control–A 405compound).

Test [3] has as its system insulin‐resistant HepG2 cells. The test is described as follows: Insulin‐resistant HepG2 model, western blotting of PTP1B and pAKT. The following applies: 24 h, western blot. The class given is cell-based. Here is the method: Subsequently, we evaluated the same compounds in a HepG2 insulin‐resistant model.
Bar graphs represent the mean ± SEM of normalized values. The control levels were set at 1. T‐test significance *p < 0.05, when compared with control (DMSO). Statistical analyses were carried out using GraphPad Prism 8.0.
For the resistant insulin model using HepG2 cells, the following reagents were acquired from Sigma–Aldrich (Toluca, MEX, Mexico, and St. Louis, MO, USA): Insulin (I2643), Dulbecco's modified eagle's medium (DMEM) low glucose media (D5523), Trypsin‐EDTA solution (T4174), antibiotic‐antimycotic solution(A5955), dimethyl sulfoxide (DMSO‐D8418), sodium deoxycholate (D6750), triethylammonium bicarbonate buffer 1 M (TEAB‐T7408), glutaraldehyde 25% (G6275), acetic acid (695092), and crystal violet (C0775). The bicinchoninic acid protein quantitation kit (23225) and the Halt Cocktail with protease and phosphatase inhibitors (1861281) were acquired from ThermoFisherScientific. Fetal bovine serum (26140–079) was from Gibco. The chemiluminescent solution (170–5061) was acquired from Biorad. Rabbit anti‐PTP1B (5311S) and mouse anti‐β actin (3700S) primary antibodies were obtained from Cell Signaling, and secondary antibodies coupled with horseradish peroxidase were from Jackson laboratories (rabbit‐111−035, mouse‐115–035).
Treated cells with compounds were washed twice with 1 mL of PBS, and protein was extracted using 500 µL of a buffer solution containing 10% sodium deoxycholate in 10% TEAB, supplemented with a protease and phosphatase inhibitor cocktail. The extracts were heated to 80 °C for 5 min and disaggregated through passages with an insulin syringe. The cell extracts were centrifuged at 15,000 rpm for 15 min at 4 °C, and the supernatant was collected. Protein quantification was performed using the bicinchoninic acid assay method, and aliquots were prepared for western blotting. SDS/PAGE was conducted, and proteins were transferred onto a nitrocellulose membrane. The membrane was then blocked with 10% skimmed milk in TBST for 1 h and incubated overnight with primary antibodies (1:400 dilution). Secondary antibodies coupled to horseradish peroxidase were diluted 1:2000, and membranes were incubated for 1 h. The blots were documented using the ChemiDoc MP (Bio‐Rad), and densitometric analysis was performed using ImageJ (U.S. National Institutes of Health). Statistical analyses were carried out using GraphPad Prism 8.0.
On the technique in general: Immunoblotting shows a protein as a band on a membrane.

In a further test the test system is PTP1B. The settings on record: cited from earlier work.
Setting [4] is: ± S.D, assessed up to 100 μM, read-out: TCPTP IC50.

`CC1(C)[C@@H](O)CC[C@]2(C)[C@H]3C(=O)C=C4[C@@H]5C[C@@](C)(C(=O)O)CC[C@]5(C)CC[C@@]4(C)[C@]3(C)CC[C@@H]12` [18β‐GA, 18β‐glycyrrhetinic acid]: on TCPTP, the IC50 (commonly the concentration at which inhibition is half-maximal) was above 100 µM and the “TCPTP inhibition (in words)” value is listed as “do not inhibit TCPTP”. Also, in the test with hPTP1B1−322, the “type of inhibition against hPTP1B1−322” value is “competitive inhibition”, the IC50 was 26.1 µM and the Ki is 16.2 µM. Also, the Inhibition type entry on hPTP1B1–400 [1] is “uncompetitive inhibition”. Also, on hPTP1B1–400 [1] (± S.D), the K m came out at 2830 ± 960 µM and the V max turned out to be 3.13 ± 0.94 mM/min.

As for `CC1(C(=O)O)CCC2(C)CCC3(C)C(=CCC4C5(C)Cc6c([nH]c7ccc(C(F)(F)F)cc67)C(C)(C)C5CCC43C)C2C1` (stereo not shown) [Compound 3a], the IC50 at TCPTP (setting [4]) was above 100 µM; against hPTP1B1–400 [2], 4.44 ± 0.22 µM. Also, at hPTP1B1–400 [2] (hPTP1B1–400), the “potency relative to 18α‐GA” value was “half as potent”.

In the case of `C[C@H]1[C@H](C)CC[C@]2(C(=O)O)CC[C@]3(C)C(=CC[C@@H]4[C@@]5(C)CC[C@H](O)C(C)(C)[C@@H]5CC[C@]43C)[C@H]12` [UA, ursolic acid], the IC50 against TCPTP was above 100 µM. For the same compound, in test [3], the “AKT phosphorylation (pAKT) levels” value was “did not demonstrate a notable change” and the PTP1B levels entry is given as “neither metformin, ursolic acid, nor GA derivatives significantly reduced PTP1B levels”.

As for `[Na+].[Na+].[Na+].[O]=[V]([O-])([O-])[O-]` [SOV, sodium orthovanadate], the “type of PTP1B inhibition” value in the test on PTP1B is “nonselective, competitive, and reversible inhibitor”. The “TCPTP inhibition (in words)” value on TCPTP was “inhibited both PTP1B and TCPTP”.

`Cc1ccc(-n2ncc3c2C(C)(C)C2CCC4(C)C(CC=C5C6CC(C)(C(=O)O)CCC6(C)CCC54C)C2(C)C3)cc1` (stereo not shown) [Compound 5b]: the IC50 on TCPTP (setting [4]) was above 100 µM; on hPTP1B1–400 [2], 2.54 ± 0.05 µM.

Turning to `Cc1ccc(-n2ncc3c2C(C)(C)C2CCC4(C)C(CC=C5C6CC(C)(C(=O)O)CCC6(C)CCC54C)C2(C)C3)cc1` (stereo not shown) [Compound 5a], the results for the IC50 at TCPTP (setting [4]) and against hPTP1B1–400 [2] were above 100 µM and 2.05 ± 0.09 µM, respectively.

With `CC1(C(=O)O)CCC2(C)CCC3(C)C(=CCC4C5(C)Cc6c([nH]c7ccc(C(F)(F)F)cc67)C(C)(C)C5CCC43C)C2C1` (stereo not shown) [Compound 3b], at TCPTP (setting [4]), the IC50 was above 100 µM. Besides, at hPTP1B1–400 [2], it took 2.84 ± 0.26 µM to reach half-maximal inhibition (IC50). On hPTP1B1–400 [1] (K i, ± S.D, hPTP1B1–400, p‐NPP 0.1 to 0.5 mM), this compound gave a Ki of 1.16 ± 0.13 µM. The Inhibition type entry on hPTP1B1–400 [1] is on record as “uncompetitive inhibition”. At hPTP1B1–400 [1] (± S.D), the K m worked out at 530 ± 80 µM and the V max is 0.63 ± 0.06 mM/min.

For `CC1(C)[C@@H](O)CC[C@]2(C)[C@H]3C(=O)C=C4[C@H]5C[C@@](C)(C(=O)O)CC[C@]5(C)CC[C@@]4(C)[C@]3(C)CC[C@@H]12` [18α‐GA, 18α‐glycyrrhetinic acid], on TCPTP, the IC50 is above 100 µM and the “TCPTP inhibition (in words)” value is on record as “do not inhibit TCPTP”. Further, in the test with hPTP1B1−322, the “type of inhibition against hPTP1B1−322” value is given as “competitive inhibition”, the IC50 is 10.4 µM and the Ki was 3.17 µM. The Inhibition type result on hPTP1B1–400 [1] is listed as “uncompetitive inhibition”. For the same compound, on hPTP1B1–400 [1] (± S.D), the K m came to 2110 ± 680 µM and the V max was determined as 1.94 ± 0.54 mM/min.

For `CN(C)C(=N)N=C(N)N` [metformin], in test [3], the “AKT phosphorylation (pAKT) levels” value is recorded as “significant increase” and the PTP1B levels entry is on record as “neither metformin, ursolic acid, nor GA derivatives significantly reduced PTP1B levels”.

Regarding `Cc1ccc(C(=O)Nc2ccc(S(=O)(=O)O)c3cc(S(=O)(=O)O)cc(S(=O)(=O)O)c23)cc1NC(=O)c1cccc(NC(=O)Nc2cccc(C(=O)Nc3cc(C(=O)Nc4ccc(S(=O)(=O)O)c5cc(S(=O)(=O)O)cc(S(=O)(=O)O)c45)ccc3C)c2)c1` [SU, suramin], the “type of PTP1B inhibition” value in the test on PTP1B is “competitive and reversible inhibitor”.
